According to paper PMC12396240 (Drug Design, Development and Therapy, 2025):
Entries after “also recorded” stand apart in the source; their conditions may differ. One block for each molecule: values may come before it.

Assays:
[1] = Pharmacokinetics of apixaban in rats, alone and with palbociclib; type: in vivo, Sprague-Dawley rats
[2] = Pharmacokinetics of rivaroxaban in rats, alone and with palbociclib; type: in vivo, Sprague-Dawley rats
[3] = Pharmacokinetics of palbociclib in rats, alone and with apixaban or rivaroxaban; type: in vivo, Sprague-Dawley rats
BCRP (Abcg2) = test: qRT-PCR mRNA expression in rat liver and intestine after palbociclib for 8 days; type: in vivo; conditions: palbociclib for eight consecutive days vs blank control
P-gp (Abcb1a) = test: as above; type: in vivo; conditions: palbociclib for eight consecutive days vs blank control
[4] = apixaban 0.25 mg/kg alongside palbociclib, rats, no statistical significance
[5] = apixaban 0.5 mg/kg with simultaneous palbociclib vs apixaban-only group, rats
[6] = apixaban 0.5 mg/kg with simultaneous palbociclib vs control group, rats
[7] = SD rats, oral, rivaroxaban 2 mg/kg alone, geometric mean (GSD) (geometric CV%)
[8] = male, Sprague-Dawley, rat, plasma, po, 2 mg/kg
[9] = rivaroxaban 1 mg/kg + multiple doses of palbociclib compared with rivaroxaban 2 mg/kg, rats
[10] = palbociclib co-administered with apixaban vs palbociclib alone, rats
[11] = palbociclib co-administered with rivaroxaban vs palbociclib alone, rats

CLz ([1]; SD rats, oral, apixaban 0.5 mg/kg alone, geometric mean (GSD) (geometric CV%)): 0.86(GSD 1.49) (110.3%) L/h/kg | differences for CLz/F, Tmax, t1/2, Vz/F, MRT0-t and MRT0-∞ of apixaban ([1]; apixaban 0.25 mg/kg alongside palbociclib, rats): no significant differences | increase in AUC0-t of apixaban [1, 4]: 43.35% | increase in AUC0-∞ of apixaban [1, 4]: 43.49% | increase in Cmax of apixaban [1, 4]: 45.03% | increase in AUC0-t of apixaban [1, 5]: 258.36% | increase in AUC0-∞ of apixaban [1, 5]: 256.64% | increase in Cmax of apixaban [1, 5]: 243.61% | decrease in apparent volume of distribution Vz/F of apixaban [1, 6]: 73.73% | decrease in clearance CLz/F of apixaban [1, 6]: 72.53% | AUC(0-t) ([1]; male, Sprague-Dawley, rat, plasma, po, 0.5 mg/kg, AUC0-t, SD rats, apixaban 0.5 mg/kg alone, geometric mean (GSD) (geometric CV%)): 579 ng·h/mL | AUC(0-inf) ([1]; male, Sprague-Dawley, rat, plasma, po, 0.5 mg/kg, AUC0-∞, SD rats, apixaban 0.5 mg/kg alone, geometric mean (GSD) (geometric CV%)): 583 ng·h/mL | Cmax ([1]; male, Sprague-Dawley, rat, plasma, po, 0.5 mg/kg, Cmax, SD rats, apixaban 0.5 mg/kg alone, geometric mean (GSD) (geometric CV%)): 243 ng/mL | MRT last ([1]; male, Sprague-Dawley, rat, plasma, po, 0.5 mg/kg, MRT0-t, SD rats, apixaban 0.5 mg/kg alone, geometric mean (GSD) (geometric CV%)): 1.83 h | MRT inf ([1]; male, Sprague-Dawley, rat, plasma, po, 0.5 mg/kg, MRT0-∞, SD rats, apixaban 0.5 mg/kg alone, geometric mean (GSD) (geometric CV%)): 1.92 h | Tmax ([1]; male, Sprague-Dawley, rat, plasma, po, 0.5 mg/kg, Tmax, SD rats, apixaban 0.5 mg/kg alone, geometric mean (GSD) (geometric CV%)): 0.53 h
SMILES: COc1ccc(-n2nc(C(N)=O)c3c2C(=O)N(c2ccc(N4CCCCC4=O)cc2)CC3)cc1 [Apixaban, apixaban]
effect on pharmacokinetic parameters of apixaban ([1]; apixaban and palbociclib given 12 hours apart, rats): no significant pharmacokinetic changes; also recorded: not affected

CLz [2, 7]: 0.69(GSD 1.20) (65.6%) L/h/kg | Vz [2, 7]: 2.13(GSD 1.55) (118.4%) L/kg | MRT inf [2, 8]: 3.67 h | MRT last [2, 8]: 3.32 h | AUC(0-t) ([2]; male, Sprague-Dawley, rat, plasma, po, 2 mg/kg, AUC0-t, SD rats, rivaroxaban 2 mg/kg alone, geometric mean (GSD) (geometric CV%)): 691 ng·h/mL | AUC(0-inf) ([2]; male, Sprague-Dawley, rat, plasma, po, 2 mg/kg, AUC0-∞, SD rats, rivaroxaban 2 mg/kg alone, geometric mean (GSD) (geometric CV%)): 722 ng·h/mL | Tmax ([2]; male, Sprague-Dawley, rat, plasma, po, 2 mg/kg, Tmax, SD rats, rivaroxaban 2 mg/kg alone, geometric mean (GSD) (geometric CV%)): 1.02 h | decrease in MRT0-t of rivaroxaban [2, 9]: 27.82% | decrease in MRT0-∞ of rivaroxaban [2, 9]: 35.43% | decrease in apparent volume of distribution Vz/F of rivaroxaban [2, 9]: 77.46% | decrease in clearance CLz/F of rivaroxaban [2, 9]: 60.87% | differences for Tmax and t1/2 of rivaroxaban [2, 9]: no significant differences | increase in AUC0-t of rivaroxaban [2, 9]: 161.86% | increase in AUC0-∞ of rivaroxaban [2, 9]: 150.93% | increase in Cmax of rivaroxaban [2, 9]: 243.63%
SMILES: O=C(NC[C@H]1CN(c2ccc(N3CCOCC3=O)cc2)C(=O)O1)c1ccc(Cl)s1 [Rivaroxaban, rivaroxaban]
effect on pharmacokinetic parameters of rivaroxaban ([2]; rivaroxaban and palbociclib given 12 hours apart, rats): no significant pharmacokinetic changes; also recorded: not affected

AUC(0-t) ([3]; male, Sprague-Dawley, rat, plasma, po, 11 mg/kg, AUC0-t, SD rats, palbociclib 11 mg/kg alone, geometric mean (GSD) (geometric CV%)): 4340 ng·h/mL | AUC(0-inf) ([3]; male, Sprague-Dawley, rat, plasma, po, 11 mg/kg, AUC0-∞, SD rats, palbociclib 11 mg/kg alone, geometric mean (GSD) (geometric CV%)): 4350 ng·h/mL | Cmax ([3]; male, Sprague-Dawley, rat, plasma, po, 11 mg/kg, Cmax, SD rats, palbociclib 11 mg/kg alone, geometric mean (GSD) (geometric CV%)): 469 ng/mL | MRT last ([3]; male, Sprague-Dawley, rat, plasma, po, 11 mg/kg, MRT0-t, SD rats, palbociclib 11 mg/kg alone, geometric mean (GSD) (geometric CV%)): 7.33 h | MRT inf ([3]; male, Sprague-Dawley, rat, plasma, po, 11 mg/kg, MRT0-∞, SD rats, palbociclib 11 mg/kg alone, geometric mean (GSD) (geometric CV%)): 7.39 h | Tmax ([3]; male, Sprague-Dawley, rat, plasma, po, 11 mg/kg, Tmax, SD rats, palbociclib 11 mg/kg alone, geometric mean (GSD) (geometric CV%)): 2.83 h | half-life ([3]; male, Sprague-Dawley, rat, plasma, po, 11 mg/kg, t1/2, SD rats, palbociclib 11 mg/kg alone, geometric mean (GSD) (geometric CV%)): 3.99 h | increase in AUC0-t of palbociclib [3, 10]: 24.75% | increase in AUC0-∞ of palbociclib [3, 10]: 24.83% | increase in Cmax of palbociclib [3, 10]: 49.30% | increase in AUC0-t of palbociclib [3, 11]: 32.94% | increase in AUC0-∞ of palbociclib [3, 11]: 33.13%
SMILES: CC(=O)c1c(C)c2cnc(Nc3ccc(N4CCNCC4)cn3)nc2n(C2CCCC2)c1=O [Palbociclib, palbociclib]
effect on BCRP mRNA expression (BCRP (Abcg2); intestine): no significant inhibition | decrease of BCRP mRNA expression (BCRP (Abcg2); liver): 31.66% | downregulation of P-gp mRNA expression (P-gp (Abcb1a); intestine): 20.17% | effect on P-gp mRNA expression (P-gp (Abcb1a); liver): no significant effect
